Measurements as given in paper PMC7911959, “Selective Inhibition of Human Monoamine Oxidase B by 5-hydroxy-2-methyl-chroman-4-one Isolated from an Endogenous Lichen Fungus Daldinia fissa” (Journal of Fungi, 2021).
Converted amounts (≈) assume the structure as drawn. “Also recorded” adds a separate entry of the source.

Key:
[1] = system: T1, BACE-1; assay: BACE-1 activity assay (detection kit, fluorescence); format: biochemical; conditions: isolated compounds, residual activity at 10 µg/mL (footnote a)
T1 construct: purchased Sigma-Aldrich
Experimental: BACE-1 assay was carried out using the BACE-1 activity detection kit and a fluorescence spectrometer (FS-2, Scinco, Seoul, Korea) by an excitation at 320 nm and an emission at 405 nm, after the reaction for 2 h at 37 °C [24].

[2] = system: HL-60 (human acute promyelocytic leukemia) cells; assay: Cytotoxicity, CCK-8 assay, HL-60; format: cell-based; conditions: 50 µM, 24 h treatment, CCK-8 4 h
Experimental: (§1) Cell viability was determined according to the cell counting kit (CCK)-8 assay method, using MDCK (Madin–Darby canine kidney) and HL-60 (human acute promyelocytic leukemia) cells, as normal and cancer cells, respectively. Briefly, MDCK and HL-60 cells were resuspended in Dulbecco’s modified eagle medium (DMEM) and Roswell Park Memorial Institute (RPMI)-1640, respectively, at 1 × 10^5 and 3 × 10^5 cells/mL, respectively. The cell suspension (100 µL) was added to each well of the 96-well plate and was incubated for 24 h at 5% CO2 and 37 °C. After incubation, 100 µL of the medium supplemented with 1, 3, 10, 30, and 50 µM of the compound was added to each well and incubated again. After 24 h, 100 µL of the solution was removed from each well, and CCK-8 (10 µL/well) was dispensed. After 2~4 h, the absorbance was detected at 450 nm with a microplate reader (Versamax, Molecular Devices, CA, USA).

[3] = system: MDCK (Madin–Darby canine kidney) cells; assay: Cytotoxicity, CCK-8 assay, MDCK; format: cell-based; conditions: 50 µM, 24 h treatment, CCK-8 3 h
Experimental: as §1

[4] = target: T2, electric eel AChE (Electrophorus electricus, UniProt O42275); assay: biochemical
T2 construct: purchased Sigma-Aldrich
T2 sequence (O42275 24-633): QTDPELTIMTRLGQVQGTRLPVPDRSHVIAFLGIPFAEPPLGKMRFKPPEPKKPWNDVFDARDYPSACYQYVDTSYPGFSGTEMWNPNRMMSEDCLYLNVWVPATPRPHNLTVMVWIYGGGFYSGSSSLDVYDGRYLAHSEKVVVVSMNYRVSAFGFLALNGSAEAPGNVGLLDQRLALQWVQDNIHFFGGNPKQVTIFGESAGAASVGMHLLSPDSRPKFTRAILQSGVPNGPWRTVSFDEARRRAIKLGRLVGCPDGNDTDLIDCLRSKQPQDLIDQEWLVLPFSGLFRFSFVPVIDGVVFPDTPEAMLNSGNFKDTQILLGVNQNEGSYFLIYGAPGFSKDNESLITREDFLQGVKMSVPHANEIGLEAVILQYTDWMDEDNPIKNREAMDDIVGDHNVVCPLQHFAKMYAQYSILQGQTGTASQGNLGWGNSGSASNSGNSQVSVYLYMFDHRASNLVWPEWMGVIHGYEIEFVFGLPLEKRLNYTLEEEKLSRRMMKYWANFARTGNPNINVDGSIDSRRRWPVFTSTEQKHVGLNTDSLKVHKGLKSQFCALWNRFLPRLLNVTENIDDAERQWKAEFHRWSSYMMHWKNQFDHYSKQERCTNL
Experimental: (§2) For cholinesterase activity assay, electric eel AChE and horse serum BChE were used. Activities were measured according to the Ellman method, with slight modifications, in 50 mM sodium phosphate buffer (pH 7.5). After adding cholinesterase enzymes and the inhibitor, pre-incubation was applied for 15 min. After adding 0.5 mM 5,5-dithiobis (2-nitrobenzoic acid) (DTNB) 0.5 mM for color development, 0.5 mM acetyl thiocholine iodide (ATCI) or 0.5 mM butyrylthiocholine iodide (BTCI) was used as a substrate.

[5] = target: T3, horse serum BChE (Equus caballus, UniProt P81908); assay: biochemical
T3 construct: electric eel AChE and horse serum BChE were used; purchased Sigma-Aldrich; host or cells: horse serum
T3 sequence (P81908 whole entry): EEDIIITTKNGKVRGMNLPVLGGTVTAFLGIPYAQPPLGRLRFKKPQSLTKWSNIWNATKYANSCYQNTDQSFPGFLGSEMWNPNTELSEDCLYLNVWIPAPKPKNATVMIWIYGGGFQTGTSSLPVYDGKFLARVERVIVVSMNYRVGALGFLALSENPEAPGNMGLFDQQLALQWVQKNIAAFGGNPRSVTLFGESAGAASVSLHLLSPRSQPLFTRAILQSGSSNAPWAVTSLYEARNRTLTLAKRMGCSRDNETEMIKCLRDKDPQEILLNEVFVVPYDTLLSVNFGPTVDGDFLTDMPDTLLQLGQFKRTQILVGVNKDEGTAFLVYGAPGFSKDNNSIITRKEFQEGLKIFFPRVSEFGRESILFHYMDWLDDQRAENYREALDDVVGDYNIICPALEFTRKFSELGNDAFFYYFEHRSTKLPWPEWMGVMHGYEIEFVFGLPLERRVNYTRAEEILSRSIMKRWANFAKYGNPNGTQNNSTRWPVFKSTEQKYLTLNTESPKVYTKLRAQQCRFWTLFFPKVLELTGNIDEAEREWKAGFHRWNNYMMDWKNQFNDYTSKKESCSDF
Experimental: as §2

[6] = DPPH antioxidant activity assay; conditions: isolated compounds, 100 µg/mL (footnote b)
Experimental: The antioxidant activity was measured at 100 µg/mL of the extracts using 0.1 mM 2,2-diphenyl-1-picrylhydrazyl (DPPH). After 15 min of pre-incubation, absorbance was measured at 517 nm.

[7] = target: T4, Human recombinant MAO-A (Homo sapiens, UniProt P21397); assay: MAO-A activity assay (kynuramine, 316 nm); format: biochemical
T4 construct: purchased Sigma-Aldrich
T4 sequence (P21397 1-527): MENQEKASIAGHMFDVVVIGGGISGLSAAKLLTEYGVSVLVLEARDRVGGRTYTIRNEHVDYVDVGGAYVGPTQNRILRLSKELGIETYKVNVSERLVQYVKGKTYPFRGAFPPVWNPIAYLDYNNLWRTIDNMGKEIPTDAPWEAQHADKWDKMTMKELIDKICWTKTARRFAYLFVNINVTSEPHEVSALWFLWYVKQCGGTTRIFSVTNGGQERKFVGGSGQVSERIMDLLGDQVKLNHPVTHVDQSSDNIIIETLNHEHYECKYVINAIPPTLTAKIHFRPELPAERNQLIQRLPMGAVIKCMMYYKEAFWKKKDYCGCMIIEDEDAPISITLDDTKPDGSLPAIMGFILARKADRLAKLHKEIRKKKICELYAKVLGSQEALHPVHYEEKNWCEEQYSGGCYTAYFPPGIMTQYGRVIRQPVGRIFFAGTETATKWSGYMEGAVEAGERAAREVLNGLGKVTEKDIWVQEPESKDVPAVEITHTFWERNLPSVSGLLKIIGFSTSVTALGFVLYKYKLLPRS
Experimental: (§3) Human recombinant MAO-A and MAO-B enzymes were used, and the activities were measured in a final volume of 500 µL of 100 mM sodium phosphate buffer of pH 7.2, and 0.06 mM kynuramine (MAO-A), or 0.3 mM benzylamine (MAO-B).
(§4) The inhibitory activities of the isolated compounds were analyzed at a concentration of 2 µg/mL.

[8] = target: T5, Human recombinant MAO-B (Homo sapiens, UniProt P27338); assay: MAO-B activity assay (benzylamine, 250 nm); format: biochemical
T5 construct: purchased Sigma-Aldrich
T5 sequence (P27338 1-520): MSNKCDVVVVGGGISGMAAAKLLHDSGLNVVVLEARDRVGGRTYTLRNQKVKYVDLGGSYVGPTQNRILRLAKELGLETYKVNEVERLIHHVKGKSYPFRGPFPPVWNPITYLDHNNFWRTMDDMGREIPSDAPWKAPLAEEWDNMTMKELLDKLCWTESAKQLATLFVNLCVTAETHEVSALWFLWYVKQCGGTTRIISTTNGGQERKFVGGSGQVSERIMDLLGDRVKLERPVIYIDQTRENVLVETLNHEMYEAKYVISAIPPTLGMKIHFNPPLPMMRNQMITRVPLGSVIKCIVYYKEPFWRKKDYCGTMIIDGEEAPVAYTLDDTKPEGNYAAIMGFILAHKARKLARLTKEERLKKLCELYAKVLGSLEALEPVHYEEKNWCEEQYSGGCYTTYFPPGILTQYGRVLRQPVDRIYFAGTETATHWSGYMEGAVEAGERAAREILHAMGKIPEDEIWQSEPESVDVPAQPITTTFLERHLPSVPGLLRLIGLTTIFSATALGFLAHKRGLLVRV
Experimental: as §3, §4

[9] = system: T6, MAO-B; assay: Inhibitor reversibility analysis by dialysis; format: biochemical, human; conditions: for MAO-B activity recovered after dialysis: ~2× IC50, dialyzed; for MAO-B activity before dialysis (undialyzed): ~2× IC50, undialyzed
T6 construct: purchased Sigma-Aldrich

[10] = target: T6, MAO-B; conditions: co-crystallized ligand of PDB 4A79; reference not given; cited from earlier work
[11] = system: liver or brain MAO; conditions: read-out: IC50 MAO enzyme; cited from earlier work
[12] = target: monoamine oxidase; design: method as in PMID 27520493; conditions: cited from earlier work

CC1CC(=O)c2c(O)cccc2O1 (centres unmarked) [HMC, 5-hydroxy-2-methyl-chroman-4-one]
Residual Activity (%) BACE-1 [1]: 98.6 ± 2.04% | Cell viability, HL-60 [2]: No cytotoxicity; also recorded: not decreased at all | Cell viability, MDCK [3]: No cytotoxicity; also recorded: not decreased at all | IC50 [4]: > 40 µM | remaining activity at 2 µg/mL ([4]; isolated compounds, 2 µg/mL, read-out: Residual Activity at 2 µg/mL (%) AChE): 73 ± 1.13% | IC50 [5]: > 40 µM | remaining activity at 2 µg/mL ([5]; isolated compounds, 2 µg/mL, read-out: Residual Activity at 2 µg/mL (%) BChE): 83.8 ± 5.89% | % Inhibition DPPH [6]: 25.11 ± 2.12% | IC50 [7]: 14 ± 2.07 µM | remaining activity at 2 µg/mL ([7]; isolated compounds, 2 µg/mL, read-out: Residual Activity at 2 µg/mL (%) MAO-A): 55.8 ± 0.91% | IC50 [8]: 3.23 ± 0.3 µM | Inhibition pattern (Lineweaver–Burk plots) ([8]; MAO-B): competitive inhibitor | remaining activity at 2 µg/mL ([8]; isolated compounds, 2 µg/mL, read-out: Residual Activity at 2 µg/mL (%) MAO-B): 13.2 ± 0.48% | Time-dependency: residual activities after preincubation ([8]; preincubation up to 30 min): not changed significantly | Selectivity for MAO-B compared to MAO-A ([8]; ratio of IC50 values): ~ 4 fold | Ki ([8]; secondary plot of Lineweaver–Burk slopes vs inhibitor concentration): 0.896 µM | Reversibility of MAO-B inhibition ([9]; dialysis, ~2× IC50): reversible inhibitor | MAO-B activity recovered after dialysis [9]: 80.6% | MAO-B activity before dialysis (undialyzed) [9]: 23.1%

NCCNC(=O)c1ccc(Cl)cn1 [Lazabemide, reference compound]
MAO-B activity recovered after dialysis [9]: 74.4% | MAO-B activity before dialysis (undialyzed) [9]: 26.0%

CCc1ccc(CCOc2ccc(CC3SC(=O)NC3=O)cc2)nc1 (centres unmarked) [P1B, pioglitazone]
Ki [10]: 0.5 µM

C#CCN(C)Cc1ccccc1 [Pargyline, reference compound]
MAO-B activity recovered after dialysis [9]: not recovered at all

CCCCCC(=O)c1c(O)cc2c(c1O)C(=O)c1c(O)cc(OC)cc1C2=O [Solorinic acid]
IC50 [11]: 14.3 µM

CC1Cc2cccc(O)c2C(=O)O1 (centres unmarked) [mellein, Mellein]
IC50 [12]: 50.2 µM | IC50 monoamine oxidase [12]: 8.93 µg/mL (≈ 50.1 µM)
